For assay [1], the system named is HXO-RB44 cell line. The assay can be described thus: In vitro antitumor activity of concentration of 10-4 mol.L-1 against HXO-RB44 cell line using MTT assay. As to conditions: for inhibition: Homo sapiens. In kind it is functional, Homo sapiens. (In general: Tetrazolium dyes change colour on reduction, which living cells bring about.)
In assay [2] the test system is Bel-7402. The assay can be described thus: In vitro antitumor activity of concentration of 10-3 mol.L-1 against BEL-7402 cell line using MTT assay. The class given is functional, Homo sapiens. To be noted: for inhibition: Homo sapiens.
Assay [3] relates to HXO-RB44 cell line. The assay can be described thus: In vitro antitumor activity of concentration of 10-6 mol.L-1 against HXO-RB44 cell line using MTT assay. In kind it is functional, Homo sapiens. To be noted: for inhibition: Homo sapiens.
The subject of assay [4] is Bel-7402. The assay can be described thus: In vitro antitumor activity of compound at a concentration 10-4 mol.L-1 against BEL-7402 cell line using MTT assay. In kind it is functional, Homo sapiens. As to conditions: for inhibition: Homo sapiens.
Assay [5] deals with HXO-RB44 cell line. The assay can be described thus: In vitro antitumor activity of concentration of 10-5 mol.L-1 against HXO-RB44 cell line using MTT assay. In kind it is functional, Homo sapiens. To be noted: for inhibition: Homo sapiens.
For assay [6], the system named is Bel-7402. The assay can be described thus: In vitro antitumor activity of compound at a […] mol.L-1 against BEL-7402 cell line using MTT assay. The class given is functional, cell-based. As to conditions: Homo sapiens.

For the compound `OC1CNCCNCCNC1`, the Inhibition (usually how much of the control response was suppressed) in the assay with HXO-RB44 cell line [1] is listed as 3%; with Bel-7402 [2] it was 34%; in the assay with HXO-RB44 cell line [3], 1%; in the assay on Bel-7402 [4], 16%; with HXO-RB44 cell line [5], 3%.

On to COPPER, for which the inhibition (as a rule, the change of the read-out against control, counted positive when it falls) in the assay with HXO-RB44 cell line [1] amounted to 5%; in the assay with Bel-7402 [2] it was 81%; in the assay on HXO-RB44 cell line [3], 0%; in the assay with Bel-7402 [4], 3%; with HXO-RB44 cell line [5], 3%; in the assay on Bel-7402 [6] it was 2%.

As to [1,4,7]Triazecan-9-ol copper complex, the inhibition worked out at 64% with HXO-RB44 cell line [1]; 97% with Bel-7402 [2]; 2% in the assay with HXO-RB44 cell line [3]; 47% in the assay with Bel-7402 [4]; 13% in the assay on HXO-RB44 cell line [5]; 11% in the assay with Bel-7402 [6].

For the origin of these results see ChEMBL document CHEMBL1136124, “Copper complex of hydroxyl-substituted triazamacrocyclic ligand and its antitumor activity” (2003).
